Experimental data from ChEMBL document CHEMBL4828714, “Mutasynthesis of Antibacterial Halogenated Actinomycin Analogues” (J Nat Prod, 2021).
≈ marks a conversion by molar mass, not a printed value.

Columns and labels:
Staphylococcus aureus [1] = experiment: Antimicrobial activity against Staphylococcus aureus ATCC 29213 assessed as inhibition of bacterial growth incubated for 16 to 18 hrs by broth micro dilution technique; type: functional; details: time 16-18 hrs
HepG2 = experiment: Cytotoxicity against human HepG2 cells assessed as growth inhibition incubated for 68 hrs by MTT assay; type: functional, cell-based; details: HepG2, 68 h
Micrococcus luteus = experiment: Antimicrobial activity against Micrococcus luteus ML01 assessed as inhibition of bacterial growth incubated for 16 to 18 hrs by broth micro dilution technique; type: functional; details: time 16-18 hrs
Enterococcus faecalis = experiment: Antimicrobial activity against Enterococcus faecalis ATCC 29212 assessed as inhibition of bacterial growth incubated for 16 to 18 hrs by broth micro dilution technique; type: functional; details: time 16-18 hrs
Staphylococcus aureus [2] = experiment: Antimicrobial activity against Staphylococcus aureus Sau 718306 assessed as inhibition of bacterial growth incubated for 16 to 18 hrs by broth micro dilution technique; type: functional; details: time 16-18 hrs
Staphylococcus aureus [3] = experiment: Antimicrobial activity against Staphylococcus aureus Sau 6917 assessed as inhibition of bacterial growth incubated for 16 to 18 hrs by broth micro dilution technique; type: functional; details: time 16-18 hrs
L02 = experiment: Cytotoxicity against human L02 cells assessed as growth inhibition incubated for 68 hrs by MTT assay; type: cell-based; details: L02, 68 h
Staphylococcus aureus [4] = experiment: Antimicrobial activity against Staphylococcus aureus CCAM 3090 assessed as inhibition of bacterial growth incubated for 16 to 18 hrs by broth micro dilution technique; type: functional; details: time 16-18 hrs
BEAS-2B = experiment: Cytotoxicity against human BEAS-2B cells assessed as growth inhibition incubated for 68 hrs by MTT assay; type: cell-based
HeLa = experiment: Cytotoxicity against human HeLa cells assessed as growth inhibition incubated for 68 hrs by MTT assay; type: functional, cell-based
Staphylococcus aureus [5] = experiment: Antimicrobial activity against Staphylococcus aureus Sau 745524 assessed as inhibition of bacterial growth incubated for 16 to 18 hrs by broth micro dilution technique; type: functional; details: time 16-18 hrs
Enterococcus faecium = experiment: Antimicrobial activity against Enterococcus faecium ATCC 35682 assessed as inhibition of bacterial growth incubated for 16 to 18 hrs by broth micro dilution technique; type: functional; details: time 16-18 hrs
Staphylococcus aureus [6] = experiment: Antimicrobial activity against Staphylococcus aureus Sau 991 assessed as inhibition of bacterial growth incubated for 16 to 18 hrs by broth micro dilution technique; type: functional; details: time 16-18 hrs
RKO = experiment: Cytotoxicity against human RKO cells assessed as growth inhibition incubated for 68 hrs by MTT assay; type: functional, cell-based
Candida albicans = experiment: Antimicrobial activity against Candida albicans assessed as inhibition of bacterial growth incubated for 16 to 18 hrs by broth micro dilution technique; type: functional; details: time 16-18 hrs
MCF7 = experiment: Cytotoxicity against human MCF7 cells assessed as growth inhibition incubated for 68 hrs by MTT assay; type: functional, cell-based; details: MCF7, 68 h
Bacillus thuringiensis = experiment: Antimicrobial activity against Bacillus thuringiensis BT01 assessed as inhibition of bacterial growth incubated for 16 to 18 hrs by broth micro dilution technique; type: functional; details: time 16-18 hrs
A549 = experiment: Cytotoxicity against human A549 cells assessed as growth inhibition incubated for 68 hrs by MTT assay; type: functional, cell-based; details: A549, 68 h
HL-60 = experiment: Cytotoxicity against human HL-60 cells assessed as growth inhibition incubated for 68 hrs by MTT assay; type: functional, cell-based; details: HL-60, 68 h
Staphylococcus aureus [7] = experiment: Antimicrobial activity against Staphylococcus aureus Sau 1862 assessed as inhibition of bacterial growth incubated for 16 to 18 hrs by broth micro dilution technique; type: functional; details: time 16-18 hrs
Staphylococcus aureus [8] = experiment: Antimicrobial activity against Staphylococcus aureus Sau 16162 assessed as inhibition of bacterial growth incubated for 16 to 18 hrs by broth micro dilution technique; type: functional; details: time 16-18 hrs

| MIC (Staphylococcus aureus [1]) [µg/mL] | MIC (Micrococcus luteus) [µg/mL] | MIC (Enterococcus faecalis) [µg/mL] | MIC (Staphylococcus aureus [2]) [µg/mL] | MIC (Staphylococcus aureus [3]) [µg/mL] | MIC (Staphylococcus aureus [4]) [µg/mL] | MIC (Staphylococcus aureus [5]) [µg/mL] | MIC (Enterococcus faecium) [µg/mL] | MIC (Staphylococcus aureus [6]) [µg/mL] | MIC (Candida albicans) [µg/mL] | MIC (Bacillus thuringiensis) [µg/mL] | MIC (Staphylococcus aureus [7]) [µg/mL] | SMILES | IC50 (HepG2) [µM] | IC50 (L02) [µM] | IC50 (BEAS-2B) [µM] | IC50 (HeLa) [µM] | IC50 (RKO) [µM] | IC50 (MCF7) [µM] | IC50 (A549) [µM] | IC50 (HL-60) [µM] | further results |
| --- | --- | --- | --- | --- | --- | --- | --- | --- | --- | --- | --- | --- | --- | --- | --- | --- | --- | --- | --- | --- | --- |
| 32 (≈ 24.7 µM) | 0.06 (≈ 0.0463 µM) | 16 (≈ 12.3 µM) | 16 (≈ 12.3 µM) | 32 (≈ 24.7 µM) | 32 (≈ 24.7 µM) | 16 (≈ 12.3 µM) | 0.13 (≈ 0.1 µM) | 16 (≈ 12.3 µM) | 16 (≈ 12.3 µM) | 0.5 (≈ 0.386 µM) | 16 (≈ 12.3 µM) | CC(C)[C@H]1C(=O)O[C@H](C)[C@H](NC(=O)c2c3nc4c(C(=O)N[C@@H]5C(=O)N[C@H](C(C)C)C(=O)N6CCC[C@H]6C(=O)N(C)CC(=O)N(C)[C@@H](C(C)C)C(=O)O[C@@H]5C)ccc(Cl)c4oc-3c(Cl)c(=O)c2N)C(=O)N[C@H](C(C)C)C(=O)N2CCC[C@H]2C(=O)N(C)CC(=O)N1C | 2.8 | 4.6 | 1 | 51 | 11.1 | 17.3 | 4.5 | 0.2 | MIC (Staphylococcus aureus [8]): 16 µg/mL (≈ 12.3 µM) |
| 32 (≈ 25.3 µM) | 2 (≈ 1.58 µM) | 64 (≈ 50.7 µM) | 32 (≈ 25.3 µM) | 32 (≈ 25.3 µM) | 32 (≈ 25.3 µM) | 32 (≈ 25.3 µM) | 4 (≈ 3.17 µM) | 32 (≈ 25.3 µM) | 64 (≈ 50.7 µM) | 16 (≈ 12.7 µM) | 32 (≈ 25.3 µM) | CC(C)[C@H]1C(=O)O[C@H](C)[C@H](NC(=O)c2c3nc4c(C(=O)N[C@@H]5C(=O)N[C@H](C(C)C)C(=O)N6CCC[C@H]6C(=O)N(C)CC(=O)N(C)[C@@H](C(C)C)C(=O)O[C@@H]5C)ccc(F)c4oc-3c(F)c(=O)c2N)C(=O)N[C@H](C(C)C)C(=O)N2CCC[C@H]2C(=O)N(C)CC(=O)N1C | > 50 | > 50 | > 50 | > 50 | > 50 | 17.1 | > 50 | > 50 | MIC (Staphylococcus aureus [8]): 32 µg/mL (≈ 25.3 µM) |
| 16 (≈ 11.4 µM) | 0.5 (≈ 0.357 µM) | 32 (≈ 22.8 µM) | 16 (≈ 11.4 µM) | 32 (≈ 22.8 µM) | 16 (≈ 11.4 µM) | 16 (≈ 11.4 µM) | 2 (≈ 1.43 µM) | 16 (≈ 11.4 µM) | 8 (≈ 5.71 µM) | 2 (≈ 1.43 µM) | 16 (≈ 11.4 µM) | CC(C)[C@H]1C(=O)O[C@H](C)[C@H](NC(=O)c2c3nc4c(C(=O)N[C@@H]5C(=O)N[C@H](C(C)C)C(=O)N6CCC[C@H]6C(=O)N(C)CC(=O)N(C)[C@@H](C(C)C)C(=O)O[C@@H]5C)ccc(Br)c4oc-3c(Br)c(=O)c2N)C(=O)N[C@H](C(C)C)C(=O)N2C[C@@H](O)C[C@H]2C(=O)N(C)CC(=O)N1C | 3 | 3.1 | 0.9 | 2.4 | 1.3 | 2.9 | 53.7 | 0.2 | MIC (Staphylococcus aureus [8]): 16 µg/mL (≈ 11.4 µM) |
| 32 (≈ 22.8 µM) | 2 (≈ 1.43 µM) | 32 (≈ 22.8 µM) | 16 (≈ 11.4 µM) | 32 (≈ 22.8 µM) | 32 (≈ 22.8 µM) | 32 (≈ 22.8 µM) | 4 (≈ 2.85 µM) | 32 (≈ 22.8 µM) | 8 (≈ 5.71 µM) | 4 (≈ 2.85 µM) | 32 (≈ 22.8 µM) | CC(C)[C@H]1C(=O)O[C@H](C)[C@H](NC(=O)c2c3nc4c(C(=O)N[C@@H]5C(=O)N[C@H](C(C)C)C(=O)N6CCC[C@H]6C(=O)N(CO)CC(=O)N(C)[C@@H](C(C)C)C(=O)O[C@@H]5C)ccc(Br)c4oc-3c(Br)c(=O)c2N)C(=O)N[C@H](C(C)C)C(=O)N2CCC[C@H]2C(=O)N(C)CC(=O)N1C | > 50 | 13.3 | 5.8 | > 50 | 24.6 | 12.8 | 37.8 | > 50 | MIC (Staphylococcus aureus [8]): 32 µg/mL (≈ 22.8 µM) |
